# Entries after “also recorded” stand apart in the source; their conditions may differ.
# How the values were obtained:
# [1] = test system: Human Leukocyte Antigen molecule; conditions: from the literature; cited from earlier work
# [2] = test system: E7 56-70 specific T-cell clones from subject 15-04; assay: Enzyme-linked immunospot assays defining the core sequence of the CD4 T-cell epitope; conditions: for Number of spot-forming units, 15-mer, 11-mer, 10-mer and 9-mer peptides compared: FIG. 3B; for Number of spot-forming units, 15-mer, 11-mer, 10-mer and 9-mer peptides compared / Response (spot-forming units) among the six overlapping 10-mer peptides: peptide concentration 10 μM; for Response (spot-forming units) among the six overlapping 10-mer peptides: FIG. 3A, three of the four T-cell clones tested; for Number of spot-forming units with serially diluted peptides: FIG. 3C, clones #45 and #207
# [3] = test system: Human Leukocyte Antigen class II molecule; assay: Enzyme-linked immunospot assay identifying the restricting Human Leukocyte Antigen molecule; conditions: allogeneic B-lymphoblastoid cell line cells sharing class II molecules with subject 15-04, E7 56-70 peptide used in the assay
# [4] = test system: T-cell clones from subject 15-04; assay: Enzyme-linked immunospot assay for exogenous presentation (pulsed autologous dendritic cells); conditions: FIG. 2B; clones #11, #207, #304; 2.5×10^3 dendritic cells per well
molecule,measurement,setting,value
"E7 35-50: previously described Human Papilloma virus-specific CD4 T-cell epitope of the E7 protein (EDEIDGPAGQAEPDRA; UniProt P03129 35-50, looked up, fragment)",Restriction element of described epitope,[1],Human Leukocyte Antigen-DQ2
"E7 50-62: previously described Human Papilloma virus-specific CD4 T-cell epitope of the E7 protein (AHYNIVTFCCKCD; UniProt P03129 50-62, looked up, fragment)",Restriction element of described epitope,[1],Human Leukocyte Antigen-DR15
"E6 127-141: previously described HPV 16 E6 CD4 epitope (DKKQRFHNIRGRWTG; UniProt P03126 127-141, looked up, fragment)",Restriction element of described epitope,[1],Human Leukocyte Antigen-DRB1*01
"E7 59-67: 9-mer peptide of HPV 16 E7 contained in the 11-mer E7 58-68 (CKCDSTLRL; UniProt P03129 59-67, looked up, fragment)","Number of spot-forming units, 15-mer, 11-mer, 10-mer and 9-mer peptides compared",[2],negative repeatedly
CCKCDSTLRL (E7 58-67 peptide from immunodominant epitope region of Human Papilloma Virus 16 E7 protein),Response (spot-forming units) among the six overlapping 10-mer peptides,[2],strongest response; also recorded: highest number of spot-forming units
same,"Number of spot-forming units, 15-mer, 11-mer, 10-mer and 9-mer peptides compared",[2],Equally large numbers of spot-forming units; also recorded: equally high number of spot-forming units
same,Number of spot-forming units with serially diluted peptides,[2],equivalent numbers of spot forming units; also recorded: equivalent numbers of spot-forming units
CKCDSTLRLC (E7 59-68 peptide from immunodominant epitope region of Human Papilloma Virus 16 E7 protein),Response (spot-forming units) among the six overlapping 10-mer peptides,[2],strongest responses; also recorded: highest number of spot-forming units
same,"Number of spot-forming units, 15-mer, 11-mer, 10-mer and 9-mer peptides compared",[2],Equally large numbers of spot-forming units; also recorded: equally high number of spot-forming units
same,Number of spot-forming units with serially diluted peptides,[2],equivalent numbers of spot forming units; also recorded: equivalent numbers of spot-forming units
"E7 61-80: previously described Human Papilloma virus-specific CD4 T-cell epitope of the E7 protein (CDSTLRLCVQSTHVDIRTLE; UniProt P03129 61-80, looked up, fragment)",Restriction element of described epitope,[1],Human Leukocyte Antigen-DR9
"E7 43-77: previously described Human Papilloma virus-specific CD4 T-cell epitope of the E7 protein (GQAEPDRAHYNIVTFCCKCDSTLRLCVQSTHVDIR; UniProt P03129 43-77, looked up, fragment)",Restriction element of described epitope,[1],Human Leukocyte Antigen-DR3
EPDRAHYNIVTFCCKCDSTLRLCVQ (E7 46-70 peptide from immunodominant epitope region of Human Papilloma Virus 16 E7 protein) [HPV type 16 E7 46-70],Restriction element,[3],Human Leukocyte Antigen major histocompatibility complex class II molecule
"E7 60-68: 9-mer peptide of HPV 16 E7 contained in the 11-mer E7 58-68 (KCDSTLRLC; UniProt P03129 60-68, looked up, fragment)","Number of spot-forming units, 15-mer, 11-mer, 10-mer and 9-mer peptides compared",[2],negative repeatedly
CCKCDSTLRLC (E7 58-68 peptide from immunodominant epitope region of Human Papilloma Virus 16 E7 protein),Restriction element,[3],Human Leukocyte Antigen-DR17 molecule
same,Restriction element,[3]; listed as HPV 16 E7 58-68,Human Leukocyte Antigen-DR17 molecule
same,Restriction element,[3]; listed as novel CD4 T-cell epitope,Human Leukocyte Antigen-DR 17 molecule
same,Restriction element,[3]; listed as novel HPV 16 E7 CD4 T-cell epitope,Human Leukocyte Antigen-DR17 molecule
same,"Number of spot-forming units, 15-mer, 11-mer, 10-mer and 9-mer peptides compared",[2],Equally large numbers of spot-forming units; also recorded: equally high number of spot-forming units
same,Number of spot-forming units with serially diluted peptides,[2],equivalent numbers of spot forming units; also recorded: equivalent numbers of spot-forming units
LEDLLMGTL (E7 79-87 control peptide from immunodominant epitope region of Human Papilloma Virus 16 E7 protein) [HPV 16 E7 79-87],Restriction element of described epitope,[1],Human Leukocyte Antigen-B69
"HPV 16 E7 71-85: previously described HPV 16 E7 epitope, 15 amino acids long (STHVDIRTLEDLLMG; UniProt P03129 71-85, looked up, fragment)",Restriction element of described epitope,[1],Human Leukocyte Antigen-DQB1*02
"E6 43-57: previously described HPV 18 E6 CD4 epitope (EVFEFAFKDLFVVYR; UniProt P06463 43-57, looked up, fragment)",Restriction element of described epitope,[1],Human Leukocyte Antigen-DRB1*15
E7 protein: recombinant HPV 16 E7 protein pulsed to autologous mature dendritic cells (protein) MHGDTPTLHEYMLDLQPETTDLYCYEQLNDSSEEEDEIDGPAGQAEPDRAHYNIVTFCCKCDSTLRLCVQSTHVDIRTLEDLLMGTLGIVCPICSQKP,Response (interferon-γ secretion) of T-cell clones to pulsed autologous dendritic cells,[4],demonstrated interferon-γ secretion; also recorded: positive responses
